# Like-named read-outs stand apart in the source and are kept apart here. Numbered stars: 1 amine (or outer) side, 2 acyl side, 3 side chain; on linkers, the order of the positions; unused ones are H or OH. Square brackets hold non-standard residues; d marks the D form. Side chains are listed from the residue outwards. Peptide text beside a SMILES is read from it. * marks the point of attachment. C20 diacid = O=C(O)CCCCCCCCCCCCCCCCCCC(=O)*; γGlu = O=C(O)[C@H](CCC(=O)[*:2])N[*:1]; AEEA = NCCOCCOCC(=O)O; Aib = CC(C)(N)C(=O)O
# T1: human GIPR (Homo sapiens, UniProt P48546)
# T1 construct: expressed in transfected cells; host or cells: wild-type CHO-K1, transient transfection with hGIP receptor plasmid (Fugene HD)
# T1 sequence (P48546 22-466): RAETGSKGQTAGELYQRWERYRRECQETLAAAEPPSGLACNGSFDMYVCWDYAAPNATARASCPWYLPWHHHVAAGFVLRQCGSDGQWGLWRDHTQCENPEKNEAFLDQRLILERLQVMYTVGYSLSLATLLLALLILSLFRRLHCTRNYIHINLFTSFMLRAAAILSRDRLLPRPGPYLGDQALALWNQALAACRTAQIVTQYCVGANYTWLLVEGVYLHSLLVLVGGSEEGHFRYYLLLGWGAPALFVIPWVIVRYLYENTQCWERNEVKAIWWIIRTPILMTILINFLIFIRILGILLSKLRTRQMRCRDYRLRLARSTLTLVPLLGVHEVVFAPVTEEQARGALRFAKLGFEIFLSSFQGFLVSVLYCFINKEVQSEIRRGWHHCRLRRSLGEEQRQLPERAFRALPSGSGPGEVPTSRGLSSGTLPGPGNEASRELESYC
# T2: human glucose-dependent insulinotropic polypeptide receptor (GIPR) (human) (UniProt P48546)
# T2 sequence: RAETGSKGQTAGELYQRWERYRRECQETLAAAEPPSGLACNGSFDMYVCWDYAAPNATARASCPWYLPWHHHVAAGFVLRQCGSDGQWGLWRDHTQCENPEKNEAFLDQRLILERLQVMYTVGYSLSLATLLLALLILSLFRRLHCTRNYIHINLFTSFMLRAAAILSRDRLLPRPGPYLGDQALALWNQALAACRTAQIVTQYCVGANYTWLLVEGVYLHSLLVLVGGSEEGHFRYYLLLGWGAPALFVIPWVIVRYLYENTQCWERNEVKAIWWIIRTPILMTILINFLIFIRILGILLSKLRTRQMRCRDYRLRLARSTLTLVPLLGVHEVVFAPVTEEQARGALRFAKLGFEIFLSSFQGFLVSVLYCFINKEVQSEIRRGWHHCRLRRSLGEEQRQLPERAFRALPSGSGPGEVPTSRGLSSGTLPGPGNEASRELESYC
# T3: human glucose-dependent insulinotropic polypeptide receptor (GIPR) (human, UniProt P48546)
# T3 sequence: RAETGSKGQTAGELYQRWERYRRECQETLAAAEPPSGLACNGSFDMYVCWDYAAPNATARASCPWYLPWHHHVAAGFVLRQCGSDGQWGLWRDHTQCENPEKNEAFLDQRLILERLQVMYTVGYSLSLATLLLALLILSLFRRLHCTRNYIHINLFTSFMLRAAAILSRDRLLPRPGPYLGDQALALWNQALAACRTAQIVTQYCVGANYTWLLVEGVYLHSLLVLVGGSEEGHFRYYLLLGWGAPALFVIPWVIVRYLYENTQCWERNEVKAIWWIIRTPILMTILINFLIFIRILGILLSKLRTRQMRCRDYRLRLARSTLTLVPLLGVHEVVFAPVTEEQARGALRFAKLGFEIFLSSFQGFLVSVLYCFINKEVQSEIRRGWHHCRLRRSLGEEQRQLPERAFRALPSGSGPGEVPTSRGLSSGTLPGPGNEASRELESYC
# Columns and labels:
# human GIPR = target: T1, human GIPR; experiment: Agonist activity against GIPR, cAMP HTRF in CHO-K1 cells transiently transfected with hGIP receptor; assay type: cell-based
# Experimental: Wild-type CHO-K1 cells were collected, and the cell suspension was adjusted to an appropriate density, seeded in a 6-well plate at 2 mL/well, and placed in an incubator at 37° C. with 5% CO2 for adherence culture overnight.
# [1] = Stability of compounds in human plasma (LC-MS); assay type: in vitro ADME
# Experimental: 5 μL of each of samples at concentrations of 20 ng/mL, 50 ng/mL, 100 ng/mL, 200 ng/mL, 500 ng/mL, 1000 ng/mL, 2000 ng/mL, 5000 ng/mL, and 10000 ng/mL was added to 45 L of human plasma. The content of the compounds in the samples was determined by the LC-MS method and a standard curve was formed. 5 μL of a 1 mg/mL polypeptide solution was added to 45 μL of human plasma. […] With the content at 0 min as the standard (100%), the relative content of the retained compounds in the samples at other time points was calculated.
# [2] = Pharmacokinetics in Balb/c mice after a single intravenous injection; assay type: in vivo; settings: male, mouse, mice plasma, 30 nmol/kg
# Experimental: (§1) Male Balb/c mice weighing 18-30 g and aged 7-9 weeks were purchased from Shanghai Jiesijie Laboratory Animal Co., Ltd. After compound 7 #was prepared in a buffer containing 20 mM citric acid (pH=7.0), compound 7 #was intravenous injected into mice at a dose of 30 nmol/kg body weight via tail vein, and 0.2 mL of blood was separately collected at time points of 0 h, 0.083 h, 0.25 h, 0.5 h, 1 h, 2 h, 4 h, 6 h, 8 h, 24 h, and 32 h. The collected blood of mice was centrifuged at 6000 rpm for 6 min at 4° C. to separate the plasma. The content of compound 7 #in plasma of mice was assayed by the experimental procedures of Example 3.3.
# [3] = Pharmacokinetics in Balb/c mice after a single subcutaneous injection; assay type: in vivo; settings: male, mouse, sc, mice plasma, 30 nmol/kg
# Experimental: as §1, with “subcutaneously” for “intravenous”, “left side of abdomen,” for “tail vein,”, “5.2.” for “3.3.”
# normal mice = experiment: Blood glucose in normal mice after a single subcutaneous administration and intraperitoneal glucose; assay type: in vivo, C57BL/6 mice; settings: 10 nmol/kg sc; for Blood glucose (mmol/L, mean ± SD): glucose ip 18 h later
# Experimental: 18 h later, a glucose solution at a concentration of 0.2 g/mL was intraperitoneally injected. Blood glucose values were measured by collecting blood from the tail of mice at time points of 0 min, 15 min, 30 min, 60 min, and 120 min according to the experimental design. The specific procedures were as follows: the mouse was physically immobilized with the tail exposed, a little part was cut off at the tail end, then the tail was squeezed to bleed, and blood glucose was determined using a Roche active glucometer after the 1st drop of blood was discarded. The area under the blood glucose curve (AUC) was calculated from the results of all time points.
# [4] = test system: diet-induced-obesity mice; experiment: Body weight of diet-induced-obesity mice, subcutaneous administration once every 3 days; assay type: in vivo, C57BL/6 mice; settings: for Body weight change (%, mean ± SD): 10 nmol/kg
# [5] = target: T2, human glucose-dependent insulinotropic polypeptide receptor (GIPR) (human)
# human GLP-1R = human GLP-1R (Homo sapiens, UniProt P43220); experiment: Agonist activity against GLP-1R, cAMP HTRF in CHO-K1/GLP-1R/CRE-luc stable cells
# Chain of human GLP-1R (P43220 24-463): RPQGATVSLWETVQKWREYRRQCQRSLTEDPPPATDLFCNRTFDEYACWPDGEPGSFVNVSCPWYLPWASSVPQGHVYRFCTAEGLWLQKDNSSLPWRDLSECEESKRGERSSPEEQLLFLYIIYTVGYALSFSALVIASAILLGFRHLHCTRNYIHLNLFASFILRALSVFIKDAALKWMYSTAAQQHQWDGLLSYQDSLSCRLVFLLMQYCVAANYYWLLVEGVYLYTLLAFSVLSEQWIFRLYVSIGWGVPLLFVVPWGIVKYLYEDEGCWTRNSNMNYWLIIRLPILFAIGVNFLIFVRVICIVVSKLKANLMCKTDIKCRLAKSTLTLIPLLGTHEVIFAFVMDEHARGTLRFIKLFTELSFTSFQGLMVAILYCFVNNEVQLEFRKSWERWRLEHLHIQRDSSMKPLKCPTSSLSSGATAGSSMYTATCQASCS
# [6] = target: human glucagon-like peptide-1 receptor (GLP-1R) (human, UniProt P43220); experiment: cell-based or functional assay
# [7] = target: T3, human glucose-dependent insulinotropic …; experiment: cell-based or functional assay
molecule,measurement,setting,value
CC[C@H](C)[C@H](NC(=O)[C@H](CCCCN)NC(=O)[C@H](CC(=O)O)NC(=O)[C@H](CCCCNC(=O)COCCOCCNC(=O)COCCOCCNC(=O)CC[C@H](NC(=O)CCCCCCCCCCCCCCCCCCC(=O)O)C(=O)O)NC(=O)[C@H](Cc1ccc(O)cc1)NC(=O)[C@@H](NC(=O)[C@H](CO)NC(=O)[C@H](Cc1ccc(O)cc1)NC(=O)[C@H](CC(=O)O)NC(=O)[C@H](CO)NC(=O)[C@@H](NC(=O)[C@H](Cc1ccccc1)NC(=O)[C@@H](NC(=O)CNC(=O)[C@H](CCC(=O)O)NC(=O)C(C)(C)NC(=O)[C@@H](N)Cc1ccc(O)cc1)[C@@H](C)O)[C@@H](C)O)[C@@H](C)CC)C(=O)N[C@@H](C)C(=O)N[C@@H](C)C(=O)N[C@@H](CCC(N)=O)C(=O)N[C@@H](CCC(=O)O)C(=O)N[C@@H](Cc1ccccc1)C(=O)N[C@H](C(=O)N[C@@H](CC(N)=O)C(=O)N[C@@H](Cc1c[nH]c2ccccc12)C(=O)N[C@@H](CC(C)C)C(=O)N[C@@H](CC(C)C)C(=O)N[C@@H](C)C(=O)NCC(=O)NCC(=O)N1CCC[C@H]1C(=O)N[C@@H](CO)C(=O)N[C@@H](CO)C(=O)NCC(=O)N[C@@H](C)C(=O)N1CCC[C@H]1C(=O)N1CCC[C@H]1C(=O)N1CCC[C@H]1C(=O)N[C@@H](CO)C(N)=O)C(C)C [Compound 7#] (H-Y[Aib]EGTFTSDYSIYK([AEEA-AEEA-γGlu-C20 diacid])DKIAAQEFVNWLLAGGPSSGAPPPS-NH2),EC50,human GIPR,0.11 nM
same,Relative content of compounds retained in plasma (%),[1]; 0 min (standard 100%),100.00%
same,"remaining at 0.5 h, 0.1 mg/mL","[1]; human, 30 min, read-out: Relative content of compounds retained in plasma (%)",101%
same,"remaining at 1 h, 0.1 mg/mL","[1]; human, 60 min, read-out: Relative content of compounds retained in plasma (%)",102%
same,"remaining at 2 h, 0.1 mg/mL","[1]; human, 120 min, read-out: Relative content of compounds retained in plasma (%)",103%
same,"remaining at 4 h, 0.1 mg/mL","[1]; human, 240 min, read-out: Relative content of compounds retained in plasma (%)",> 90%
same,AUC(0-inf),[2],16100 ng·h/mL
same,half-life,[2],13 h
same,AUC(0-inf),[3],14500 ng·h/mL
same,half-life,[3],10.1 h
same,reduction of area under the blood glucose curve compared with placebo,normal mice,more than 60%
same,AUC (area under the blood glucose curve),normal mice; 0-120 min,10.7 ± 1.8 mmol·h/L
same,"Blood glucose (mmol/L, mean ± SD)",normal mice; 0 min,4.4 ± 0.8 mmol/L
same,"Blood glucose (mmol/L, mean ± SD)",normal mice; 15 min,6.7 ± 0.8 mmol/L
same,"Blood glucose (mmol/L, mean ± SD)",normal mice; 30 min,6.2 ± 1.3 mmol/L
same,"Blood glucose (mmol/L, mean ± SD)",normal mice; 60 min,5.7 ± 1.2 mmol/L
same,"Blood glucose (mmol/L, mean ± SD)",normal mice; 120 min,3.8 ± 1.1 mmol/L
same,"Body weight change (%, mean ± SD)",[4]; Day 1,0%
same,"Body weight change (%, mean ± SD)",[4]; Day 4,−11.0 ± 1.0%
same,"Body weight change (%, mean ± SD)",[4]; Day 7,−17.6 ± 2.6%
same,"Body weight change (%, mean ± SD)",[4]; Day 10,−22.6 ± 5.9%
same,"Body weight change (%, mean ± SD)",[4]; Day 13,−22.3 ± 6.3%
same,"Body weight change (%, mean ± SD)",[4]; Day 16,−22.7 ± 6.9%
same,"Body weight change (%, mean ± SD)",[4]; Day 19,−25.9 ± 6.2%
same,"Body weight change (%, mean ± SD)",[4]; Day 22,−23.9 ± 5.6%
same,"Body weight change (%, mean ± SD)",[4]; Day 25,−23.9 ± 5.6%
same,"Body weight change (%, mean ± SD)",[4]; Day 28,−25.5 ± 5.3%
same,body weight-reducing effect on high-fat food-induced-obesity mice,"[4]; doses of 3, 10 and 100 nmol/kg",significant body weight-reducing effect
LY3298176 (peptide),"Activity against human GIPR (EC50 nM); cAMP, HTRF",[5],0.031 nM
CC[C@H](C)[C@H](NC(=O)[C@H](CCCCN)NC(=O)[C@H](CCC(=O)O)NC(=O)[C@H](CCCCNC(=O)COCCOCCNC(=O)COCCOCCNC(=O)CC[C@H](NC(=O)CCCCCCCCCCCCCCCCCCC(=O)O)C(=O)O)NC(=O)[C@H](Cc1ccc(O)cc1)NC(=O)[C@@H](NC(=O)[C@H](CO)NC(=O)[C@H](Cc1ccc(O)cc1)NC(=O)[C@H](CC(=O)O)NC(=O)[C@H](CO)NC(=O)[C@@H](NC(=O)[C@H](Cc1ccccc1)NC(=O)[C@@H](NC(=O)CNC(=O)[C@H](CCC(=O)O)NC(=O)C(C)(C)NC(=O)[C@@H](N)Cc1ccc(O)cc1)[C@@H](C)O)[C@@H](C)O)[C@@H](C)CC)C(=O)N[C@@H](C)C(=O)N[C@@H](C)C(=O)N[C@@H](CCC(N)=O)C(=O)N[C@@H](CCC(=O)O)C(=O)N[C@@H](Cc1ccccc1)C(=O)N[C@H](C(=O)N[C@@H](CC(N)=O)C(=O)N[C@@H](Cc1c[nH]c2ccccc12)C(=O)N[C@@H](CC(C)C)C(=O)N[C@H](C(=O)N[C@@H](C)C(=O)NCC(=O)NCC(=O)N1CCC[C@H]1C(=O)N[C@@H](CO)C(=O)N[C@@H](CO)C(=O)NCC(=O)N[C@@H](C)C(=O)N1CCC[C@H]1C(=O)N1CCC[C@H]1C(=O)N1CCC[C@H]1C(=O)N[C@@H](CO)C(N)=O)[C@@H](C)CC)[C@@H](C)CC [Compound 14] (H-Y[Aib]EGTFTSDYSIYK([AEEA-AEEA-γGlu-C20 diacid])EKIAAQEFINWLIAGGPSSGAPPPS-NH2),EC50,"human GIPR; Table 6 run, read-out: Activity against human GIPR (EC50 nM)",0.13 nM
same,EC50,human GLP-1R,0.013 nM
H-Y[Aib]EGTFTSDYSIYK([AEEA-AEEA-γGlu-C20‑OH])DKIAAQEFVNWLLAGGPSSGAPPPS-NH2 [compound 7# H-YAibEGTFTSDYSIYK(OEG-OEG-yGlu-C20-OH)DKIAAQEFVNWLLAGGPSSGAPPPS-NH2],"Activity against human GLP-1R (EC50 nM); cAMP, HTRF",[6],0.021 nM
same,"Activity against human GIPR (EC50 nM); cAMP, HTRF",[7],0.11 nM

# Reference: patent US20250115654A1, “PHARMACEUTICAL COMPOSITION OF GLP-1 RECEPTOR AND GIP RECEPTOR DUAL AGONIST, AND USE THEREOF” (FUJIAN SHENGDI PHARMACEUTICAL CO., LTD., priority 2021, published 2025)
